Measurements reported in PubChem BioAssay (NCI).
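Grown in 96-well plates, cells were treated for 48 hours with each compound at five concentrations. Insufficient inhibition: endpoint recorded as highest concentration tested. TGI: total growth inhibition.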

Assays:
Assay in all cases: DTP human tumour cell line panel, 48 h
SK-MEL-2 melanoma = tested on: SK-MEL-2 melanoma
786-0 renal = tested on: 786-0 renal
SK-OV-3 ovarian = tested on: SK-OV-3 ovarian
UACC-62 melanoma = tested on: UACC-62 melanoma
T-47D breast = tested on: T-47D breast
NCI-H522 lung = tested on: NCI-H522 lung
HCT-116 colon = tested on: HCT-116 colon
HCC-2998 colon = tested on: HCC-2998 colon
NCI/ADR-RES ovarian = tested on: NCI/ADR-RES ovarian
A549 NSCLC = tested on: A549 NSCLC
TK-10 renal = tested on: TK-10 renal
SNB-75 CNS = tested on: SNB-75 CNS
M14 melanoma = tested on: M14 melanoma
SF-295 CNS = tested on: SF-295 CNS
SR leukemia = tested on: SR leukemia
HS 578T breast = tested on: HS 578T breast
NCI-H460 lung = tested on: NCI-H460 lung
OVCAR-4 ovarian = tested on: OVCAR-4 ovarian
U251 CNS = tested on: U251 CNS
RPMI-8226 leukemia = tested on: RPMI-8226 leukemia
SN12C renal = tested on: SN12C renal
UO-31 renal = tested on: UO-31 renal
COLO 205 colon = tested on: COLO 205 colon
CAKI-1 renal = tested on: CAKI-1 renal
SK-MEL-5 melanoma = tested on: SK-MEL-5 melanoma
SNB-19 CNS = tested on: SNB-19 CNS
KM12 colon = tested on: KM12 colon
OVCAR-5 ovarian = tested on: OVCAR-5 ovarian
NCI-H23 lung = tested on: NCI-H23 lung
NCI-H226 lung = tested on: NCI-H226 lung
MOLT-4 leukemia = tested on: MOLT-4 leukemia
ACHN renal = tested on: ACHN renal
HL-60(TB) leukemia = tested on: HL-60(TB) leukemia
LOX IMVI melanoma = tested on: LOX IMVI melanoma
HOP-62 NSCLC = tested on: HOP-62 NSCLC
IGROV1 ovarian = tested on: IGROV1 ovarian
SW-620 colon = tested on: SW-620 colon
SF-268 CNS = tested on: SF-268 CNS
HCT-15 colon = tested on: HCT-15 colon
MDA-N = tested on: MDA-N
HT29 colon = tested on: HT29 colon
MCF7 breast = tested on: MCF7 breast
SF-539 CNS = tested on: SF-539 CNS
DU-145 prostate = tested on: DU-145 prostate
MDA-MB-231 breast = tested on: MDA-MB-231 breast
EKVX NSCLC = tested on: EKVX NSCLC
PC-3 prostate = tested on: PC-3 prostate
MALME-3M melanoma = tested on: MALME-3M melanoma
UACC-257 melanoma = tested on: UACC-257 melanoma
SK-MEL-28 melanoma = tested on: SK-MEL-28 melanoma
CCRF-CEM leukemia = tested on: CCRF-CEM leukemia
BT-549 breast = tested on: BT-549 breast
OVCAR-8 ovarian = tested on: OVCAR-8 ovarian
K-562 leukemia = tested on: K-562 leukemia
HOP-92 NSCLC = tested on: HOP-92 NSCLC
OVCAR-3 ovarian = tested on: OVCAR-3 ovarian
MDA-MB-435 = tested on: MDA-MB-435
RXF 393 renal = tested on: RXF 393 renal
A498 renal = tested on: A498 renal

Measured: TGI

CC12CCC(=O)[C@@]1(C)CCCC2O (stereo partly drawn)
not listed: HOP-92 NSCLC | OVCAR-3 ovarian | MDA-MB-435 | RXF 393 renal | A498 renal
> 100 µM: all other assays above

Oc1cc(O)c2c(c1)OC(c1ccc(O)c(O)c1)C(O)C2c1c(O)cc(O)c2c1OC(c1ccc(O)c(O)c1)C(O)C2 (stereo not drawn)
67.5 µM: CAKI-1 renal
not listed: HCC-2998 colon | SR leukemia | MOLT-4 leukemia | HL-60(TB) leukemia | CCRF-CEM leukemia | K-562 leukemia
> 100 µM: all other assays above

COc1cc(/C=N/n2c(C)n[nH]c2=O)cc(OC)c1OC
49.7 µM: HS 578T breast
not listed: NCI-H522 lung | TK-10 renal | SR leukemia | RPMI-8226 leukemia | SK-MEL-5 melanoma | HL-60(TB) leukemia | LOX IMVI melanoma | IGROV1 ovarian | DU-145 prostate | HOP-92 NSCLC
> 100 µM: all other assays above

CC(C)(C)NC(=S)N/N=C/c1ccccn1
> 25.9 µM: NCI-H226 lung
> 96.1 µM: SN12C renal
> 47.8 µM: UO-31 renal
89.3 µM: HOP-92 NSCLC
3.83 µM: RPMI-8226 leukemia
> 46.4 µM: SK-MEL-5 melanoma
> 79.8 µM: HOP-62 NSCLC
37.3 µM: UACC-62 melanoma
> 76.7 µM: LOX IMVI melanoma
1.02 µM: HCT-116 colon
27 µM: ACHN renal
> 41.9 µM: M14 melanoma
> 40.7 µM: OVCAR-8 ovarian
> 79.1 µM: A498 renal
> 86.9 µM: NCI-H522 lung
27.6 µM: SF-539 CNS
not listed: SR leukemia | MOLT-4 leukemia | HL-60(TB) leukemia | MCF7 breast | UACC-257 melanoma | CCRF-CEM leukemia | K-562 leukemia
> 100 µM: all other assays above
